Each structure is given as a SMILES string.

One test concerns the target T1, purified human HDAC6 (Homo sapiens, UniProt Q9UBN7).
T1 construct: purchased BPS Bioscience 5006
T1 sequence (Q9UBN7 1-1215): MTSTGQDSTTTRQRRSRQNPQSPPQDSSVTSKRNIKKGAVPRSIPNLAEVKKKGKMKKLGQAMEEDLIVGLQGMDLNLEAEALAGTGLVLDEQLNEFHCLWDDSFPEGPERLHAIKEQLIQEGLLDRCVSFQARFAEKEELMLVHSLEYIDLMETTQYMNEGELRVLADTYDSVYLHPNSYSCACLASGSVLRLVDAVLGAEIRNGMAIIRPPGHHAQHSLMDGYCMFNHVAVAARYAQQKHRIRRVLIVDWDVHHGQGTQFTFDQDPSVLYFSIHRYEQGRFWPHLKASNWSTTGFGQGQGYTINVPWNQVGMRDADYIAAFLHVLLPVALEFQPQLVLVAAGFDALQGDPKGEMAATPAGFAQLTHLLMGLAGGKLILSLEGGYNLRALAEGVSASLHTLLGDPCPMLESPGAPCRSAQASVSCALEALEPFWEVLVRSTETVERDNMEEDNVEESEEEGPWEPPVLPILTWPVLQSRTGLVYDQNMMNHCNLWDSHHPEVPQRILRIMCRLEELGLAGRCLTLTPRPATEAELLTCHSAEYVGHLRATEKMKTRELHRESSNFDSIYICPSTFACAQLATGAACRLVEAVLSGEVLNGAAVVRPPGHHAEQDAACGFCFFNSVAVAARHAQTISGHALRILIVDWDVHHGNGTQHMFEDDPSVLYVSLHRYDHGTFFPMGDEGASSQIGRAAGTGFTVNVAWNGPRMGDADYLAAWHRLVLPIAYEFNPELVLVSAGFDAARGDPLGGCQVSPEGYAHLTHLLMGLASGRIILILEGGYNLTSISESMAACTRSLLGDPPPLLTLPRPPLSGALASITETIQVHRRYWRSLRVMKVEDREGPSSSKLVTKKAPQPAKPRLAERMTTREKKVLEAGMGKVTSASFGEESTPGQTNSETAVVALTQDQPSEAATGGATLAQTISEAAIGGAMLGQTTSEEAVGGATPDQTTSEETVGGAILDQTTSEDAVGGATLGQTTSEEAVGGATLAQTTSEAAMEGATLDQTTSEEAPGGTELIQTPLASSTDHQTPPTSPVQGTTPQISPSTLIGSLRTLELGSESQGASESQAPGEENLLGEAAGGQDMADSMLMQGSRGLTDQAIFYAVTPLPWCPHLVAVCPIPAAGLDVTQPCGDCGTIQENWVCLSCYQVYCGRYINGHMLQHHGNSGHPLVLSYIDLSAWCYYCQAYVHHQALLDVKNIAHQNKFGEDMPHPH
Put plainly: HDAC6 Enzyme Assay. It counts as biochemical. To be noted: compound concentration 0.37 μM, read-out: Percent Inhibition. The procedure, abridged: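 Purified human HDAC6 incubated 1 h at 30° C with Ac-Arg-Gly-Lys(Ac)-AMC peptide plus compound or DMSO; stopped with trichostatin A. Deacetylated product trypsin-digested, released AMC read by fluorescence (Ex 340/Em 460 nm). Percent inhibition at one concentration or IC50 from curves relative to DMSO controls.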
As a reminder, the inhibition is the drop in the measured response relative to a control, in per cent. On to `CS(=O)(=O)Nc1cccc(Cn2cnc3ccc(C(=O)NO)cc3c2=O)c1` [Compound I-200, N-hydroxy-3-{3-[(methylsulfonyl)amino]benzyl}-4-oxo-3,4-dihydroquinazoline-6-carboxamide], for which the inhibition at 0.37 µM was 93.3%.

With `CC(C)(C)OC(=O)N1CCC(C(CCn2ccc3ccc(C(=O)NO)cc3c2=O)c2ccc(Cl)cc2)CC1` (stereo not shown) [Compound I-205, tert-butyl 4-{1-(4-chlorophenyl)-3-[7-[(hydroxyamino)carbonyl]-1-oxoisoquinolin-2(1H)-yl]propyl}piperidine-1-carboxylate], the inhibition at 0.37 µM was 89.5%. Still for that read-out and setting: to `CC1(C(=O)Nc2cccc(Cn3ccc4ccc(C(=O)NO)cc4c3=O)c2)CCNCC1` [Compound I-215, N-hydroxy-2-(3-{[(4-methylpiperidin-4-yl)carbonyl]amino}benzyl)-1-oxo-1,2-dihydroisoquinoline-7-carboxamide] belongs 100%; to `CS(=O)(=O)c1cccc(CCn2cnc3ccc(C(=O)NO)cc3c2=O)c1` [Compound I-216, N-hydroxy-3-{2-[3-(methylsulfonyl)phenyl]ethyl}-4-oxo-3,4-dihydroquinazoline-6-carboxamide], 85.7%. Still for that read-out and setting: to `O=C(NO)c1ccc2ncn(CCc3cccc(-c4ccncc4)c3)c(=O)c2c1` [Compound I-220, N-hydroxy-4-oxo-3-[2-(3-pyridin-4-ylphenyl)ethyl]-3,4-dihydroquinazoline-6-carboxamide] belongs 98.3%. On to `CC(c1ccccc1C(F)(F)F)n1ccc2ccc(C(=O)NO)cc2c1=O` (stereo not shown) [Compound I-224, N-hydroxy-1-oxo-2-{1-[2-(trifluoromethyl)phenyl]ethyl}-1,2-dihydroisoquinoline-7-carboxamide], for which the inhibition at 0.37 µM is 96.3%.

Still in this test, the particulars now being: compound concentration 0.412 μM, read-out: Percent Inhibition.
Consider `O=C(NO)c1ccc2ccn(C3c4ccccc4-c4ccccc43)c(=O)c2c1` [Compound I-201, 2-(9H-fluoren-9-yl)-N-hydroxy-1-oxo-1,2-dihydroisoquinoline-7-carboxamide], for which the inhibition at 0.412 µM was found to be 88.8%. `COc1cc(Cn2ccc3ccc(C(=O)NO)cc3c2=O)cc(OC)c1` [Compound I-202, 2-(3,5-dimethoxybenzyl)-N-hydroxy-1-oxo-1,2-dihydroisoquinoline-7-carboxamide]: the inhibition at 0.412 µM is 96.1%. The same measure, in the same setting: then `CCN(CC)c1nc2ccc(C(=O)NO)cc2c(=O)n1C` [Compound I-203, 2-(diethylamino)-N-hydroxy-3-methyl-4-oxo-3,4-dihydroquinazoline-6-carboxamide], with 46.4%. Same read-out and setting: then `O=C(NO)c1ccc2ccn(CCOc3ccccc3Cl)c(=O)c2c1` [Compound I-204, 2-[2-(2-chlorophenoxy)ethyl]-N-hydroxy-1-oxo-1,2-dihydroisoquinoline-7-carboxamide], with 98.7%; and `O=C(NO)c1ccc2ccn(Cc3cccc(Cl)c3)c(=O)c2c1` [Compound I-206, 2-(3-chlorobenzyl)-N-hydroxy-1-oxo-1,2-dihydroisoquinoline-7-carboxamide], with 95.8%; and `NCCn1ccc2ccc(C(=O)NO)cc2c1=O` [Compound I-207, 2-(2-aminoethyl)-N-hydroxy-1-oxo-1,2-dihydroisoquinoline-7-carboxamide], with 59.5%. Consider `CCN(CC)Cc1cccc(Cn2ccc3ccc(C(=O)NO)cc3c2=O)c1` [Compound I-208, 2-{3-[(diethylamino)methyl]benzyl}-N-hydroxy-1-oxo-1,2-dihydroisoquinoline-7-carboxamide], for which the inhibition at 0.412 µM came to 89.9%. On to `O=C(NO)c1ccc2c(=O)n(Cc3ccc(F)cc3)cnc2c1` [Compound I-209, 3-(4-fluorobenzyl)-N-hydroxy-4-oxo-3,4-dihydroquinazoline-7-carboxamide], for which the inhibition at 0.412 µM is 95.9%. On the same count and under the same terms, to `O=C(NO)c1ccc2c(=O)[nH]c(COc3ccc(-n4ccnc4)cc3)nc2c1` [Compound I-210, N-hydroxy-2-{[4-(1H-imidazol-1-yl)phenoxy]methyl}-4-oxo-3,4-dihydroquinazoline-7-carboxamide] belongs 80.7%; to `O=C(NO)c1ccc2ccn(Cc3csc4ccc(Cl)cc34)c(=O)c2c1` [Compound I-211, 2-[(5-chloro-1-benzothien-3-yl)methyl]-N-hydroxy-1-oxo-1,2-dihydroisoquinoline-7-carboxamide], 92.3%; to `Cc1ccc(OCCn2ccc3ccc(C(=O)NO)cc3c2=O)cc1` [Compound I-212, N-hydroxy-2-[2-(4-methylphenoxy)ethyl]-1-oxo-1,2-dihydroisoquinoline-7-carboxamide], 96.9%. On the same count and under the same terms, then `O=C(NO)c1ccc2ccn(CCNS(=O)(=O)c3ccc(Cl)cc3)c(=O)c2c1` [Compound I-213, 2-(2-{[(4-chlorophenyl)sulfonyl]amino}ethyl)-N-hydroxy-1-oxo-1,2-dihydroisoquinoline-7-carboxamide], with 94%; and `CC(C)c1nc2cc(C(=O)NO)ccc2c(=O)[nH]1` [Compound I-214, N-hydroxy-2-isopropyl-4-oxo-3,4-dihydroquinazoline-7-carboxamide], with 65.8%; and `O=C(NO)c1ccc2ccn(Cc3cc(C(F)(F)F)ccc3C(F)(F)F)c(=O)c2c1` [Compound I-217, 2-[2,5-bis(trifluoromethyl)benzyl]-N-hydroxy-1-oxo-1,2-dihydroisoquinoline-7-carboxamide], with 99.4%.

In the case of `CCOCCn1ccc2ccc(C(=O)NO)cc2c1=O` [Compound I-218, 2-(2-ethoxyethyl)-N-hydroxy-1-oxo-1,2-dihydroisoquinoline-7-carboxamide], the inhibition at 0.412 µM is 90.4%. Still for that read-out and setting: then `O=C(NO)c1ccc2ccn(Cc3ccccc3)c(=O)c2c1` [Compound I-219, 2-benzyl-N-hydroxy-1-oxo-1,2-dihydroisoquinoline-7-carboxamide], with 94.1%. Still for that read-out and setting: then `COc1ccc(-n2ccc3ccc(C(=O)NO)cc3c2=O)cc1` [Compound I-221, N-hydroxy-2-(4-methoxyphenyl)-1-oxo-1,2-dihydroisoquinoline-7-carboxamide], with 88.1%; and `O=C(NO)c1ccc2ccn(Cc3ccc(F)cc3F)c(=O)c2c1` [Compound I-222, 2-(2,4-difluorobenzyl)-N-hydroxy-1-oxo-1,2-dihydroisoquinoline-7-carboxamide], with 94.6%. Still for that read-out and setting: to `O=C(NO)c1ccc2ccn(Cc3ccc(-n4cncn4)cc3)c(=O)c2c1` [Compound I-223, N-hydroxy-1-oxo-2-[4-(1H-1,2,4-triazol-1-yl)benzyl]-1,2-dihydroisoquinoline-7-carboxamide] belongs 94.9%.

As to `COc1ccc2ccc(OCc3nc4cc(C(=O)NO)ccc4c(=O)[nH]3)cc2c1` [Compound I-225, N-hydroxy-2-{[(7-methoxy-2-naphthyl)oxy]methyl}-4-oxo-3,4-dihydroquinazoline-7-carboxamide], the inhibition at 0.412 µM stood at 40.3%.

For the compound `CCOCCn1cnc2ccc(C(=O)NO)cc2c1=O` [Compound I-226, 3-(2-ethoxyethyl)-N-hydroxy-4-oxo-3,4-dihydroquinazoline-6-carboxamide], the inhibition at 0.412 µM is 84.5%.

For the compound `O=C(NO)c1ccc2ccn(CCCOc3ccccc3Cl)c(=O)c2c1` [Compound I-227, 2-[3-(2-chlorophenoxy)propyl]-N-hydroxy-1-oxo-1,2-dihydroisoquinoline-7-carboxamide], the inhibition at 0.412 µM came out at 93.7%.

For the origin of these results see US8765773B2, “Substituted hydroxamic acids and uses thereof” (Millennium Pharmaceuticals, Inc., priority 2010, dated 2014).
